The compounds below were run against DNA-PK (Homo sapiens, UniProt P78527) (assay: DNA-PK Inhibition Assay (standard radiometric kinase assay, 33P-ATP, peptide substrate)). Conditions: not given.
Format: biochemical
Outline: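 Radiometric transfer of 33P from ATP (100 μM) to peptide substrate (0.8 mg/mL) by about 6 nM DNA-PK with 10 μg/mL sheared dsDNA, pH 7.5 HEPES/MgCl2, 45 min, phosphoric acid quench, filter capture and scintillation counting. Ki fitted to a competitive tight-binding inhibition model.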

SMILES | Ki
ClCCN1CCC(c2cnc(N[C@H]3CC[C@@H](Oc4cc(N5CCOCC5)cc5nccnc45)CC3)nc2)CC1 [Compound 522] | < 100 nM

Same assay, conditions: radiometric assay, approximately 6 nM DNA-PK, 100 μM ATP, 45 min; fit to competitive tight-binding inhibition; read-out: Ki for the inhibition of DNA-PK

Ki | SMILES
< 100 nM | c1cc(C2CC2)nc(N[C@H]2CC[C@@H](Oc3cc(N4CCOCC4)cc4nccnc34)CC2)n1 [Compound 455]
< 100 nM | Fc1c(N[C@H]2CC[C@@H](Oc3cc(N4CCOCC4)cc4nccnc34)CC2)ncnc1C1CC1 [Compound 456]
< 100 nM | OCc1ccnc(N[C@H]2CC[C@@H](Oc3cc(N4CCOCC4)cc4nccnc34)CC2)n1 [Compound 457]
< 100 nM | Cc1nc(C)c(F)c(N[C@H]2CC[C@@H](Oc3cc(N4CCOCC4)cc4nccnc34)CC2)n1 [Compound 463]
< 100 nM | c1nc2c(c(N[C@H]3CC[C@@H](Oc4cc(N5CCOCC5)cc5nccnc45)CC3)n1)OCC2 [Compound 464]
< 100 nM | Cc1cnc(N[C@H]2CC[C@@H](Oc3cc(N4CCOCC4)cc4nccnc34)CC2)nc1C [Compound 467]
< 100 nM | CNc1ncnc(N[C@H]2CC[C@@H](Oc3cc(N4CCOCC4)cc4nccnc34)CC2)c1F [Compound 469]
< 100 nM | c1cc2ccoc2c(N[C@H]2CC[C@@H](Oc3cc(N4CCOCC4)cc4nccnc34)CC2)n1 [Compound 470]
< 100 nM | Cc1cncnc1N[C@H]1CC[C@@H](Oc2cc(N3CCOCC3)cc3nccnc23)CC1 [Compound 471]
< 100 nM | CN1CCc2c(N[C@H]3CC[C@@H](Oc4cc(N5CCOCC5)cc5nccnc45)CC3)ncnc21 [Compound 473]
< 100 nM | CN1CCN(c2ncnc(N[C@H]3CC[C@@H](Oc4cc(N5CCOCC5)cc5nccnc45)CC3)c2F)CC1 [Compound 474]
< 100 nM | c1nc2c(c(N[C@H]3CC[C@@H](Oc4cc(N5CCOCC5)cc5nccnc45)CC3)n1)COC2 [Compound 475]
< 100 nM | Cc1nc(N[C@H]2CC[C@@H](Oc3cc(N4CCOCC4)cc4nccnc34)CC2)ncc1F [Compound 476]
< 100 nM | Cc1ncnc(N[C@H]2CC[C@@H](Oc3cc(N4CCOCC4)cc4nccnc34)CC2)c1F [Compound 477]
< 100 nM | c1nc(N[C@H]2CC[C@@H](Oc3cc(N4CCOCC4)cc4nccnc34)CC2)c2c(n1)OCC2 [Compound 479]
< 100 nM | c1nc(N[C@H]2CC[C@@H](Oc3cc(N4CCOCC4)cc4nccnc34)CC2)cc(OC2CNC2)n1 [Compound 480]
< 100 nM | OCCc1cnc(N[C@H]2CC[C@@H](Oc3cc(N4CCOCC4)cc4nccnc34)CC2)nc1 [Compound 481]

Ki | SMILES
< 100 nM | CNc1nc(N[C@H]2CC[C@@H](Oc3cc(N4CCOCC4)cc4nccnc34)CC2)ncc1F [Compound 482]
< 100 nM | Clc1cnc(N[C@H]2CC[C@@H](Oc3cc(N4CCOCC4)cc4nccnc34)CC2)nc1 [Compound 485]
< 100 nM | c1cc(N[C@H]2CC[C@@H](Oc3cc(N4CCOCC4)cc4nccnc34)CC2)ncn1 [Compound 486]
< 100 nM | c1nc2c(c(N[C@H]3CC[C@@H](Oc4cc(N5CCOCC5)cc5nccnc45)CC3)n1)CCC2 [Compound 487]
< 100 nM | c1cnc2c(O[C@H]3CC[C@@H](Nc4ncnc5ccoc45)CC3)cc(N3CCOCC3)cc2n1 [Compound 488]
< 100 nM | Cc1ncc(C)c(N[C@H]2CC[C@@H](Oc3cc(N4CCOCC4)cc4nccnc34)CC2)n1 [Compound 490]
< 100 nM | Cc1ncnc(N[C@H]2CC[C@@H](Oc3cc(N4CCOCC4)cc4nccnc34)CC2)c1C [Compound 491]
< 100 nM | Cc1ncc(F)c(N[C@H]2CC[C@@H](Oc3cc(N4CCOCC4)cc4nccnc34)CC2)n1 [Compound 494]
< 100 nM | O=C1Cc2c(ncnc2N[C@H]2CC[C@@H](Oc3cc(N4CCOCC4)cc4nccnc34)CC2)N1 [Compound 502]
< 100 nM | Fc1c(N[C@H]2CC[C@@H](Oc3cc(N4CCOCC4)cc4nccnc34)CC2)ncnc1N1CCOCC1 [Compound 511]
< 100 nM | CN(C)c1ncnc(N[C@H]2CC[C@@H](Oc3cc(N4CCOCC4)cc4nccnc34)CC2)c1F [Compound 512]
< 100 nM | Clc1nc(N[C@H]2CC[C@@H](Oc3cc(N4CCOCC4)cc4nccnc34)CC2)c2[nH]ccc2n1 [Compound 513]
< 100 nM | c1cnc2c(O[C@H]3CC[C@@H](Nc4ncnc5[nH]ccc45)CC3)cc(N3CCOCC3)cc2n1 [Compound 515]
< 100 nM | c1cnc2c(O[C@H]3CC[C@@H](Nc4ncnc5[nH]cnc45)CC3)cc(N3CCOCC3)cc2n1 [Compound 516]
< 100 nM | c1cnc2c(O[C@H]3CC[C@@H](Nc4ncnc5cc[nH]c45)CC3)cc(N3CCOCC3)cc2n1 [Compound 517]
< 100 nM | c1cnc2c(O[C@H]3CC[C@@H](Nc4ncnc5occc45)CC3)cc(N3CCOCC3)cc2n1 [Compound 518]
< 100 nM | Fc1nc(N[C@H]2CC[C@@H](Oc3cc(N4CCOCC4)cc4nccnc34)CC2)c2nc[nH]c2n1 [Compound 521]

The remaining lines, values behind:

SMILES | Ki
Cn1nnc(-c2cnc(N[C@H]3CC[C@@H](Oc4cc(N5CCOCC5)cc5nccnc45)CC3)nc2)n1 [Compound 458] | < 100 nM
Cn1nnnc1-c1cnc(N[C@H]2CC[C@@H](Oc3cc(N4CCOCC4)cc4nccnc34)CC2)nc1 [Compound 459] | < 100 nM
c1cnc2c(O[C@H]3CC[C@@H](Nc4ncc(-c5nnn[nH]5)cn4)CC3)cc(N3CCOCC3)cc2n1 [Compound 460] | < 100 nM
c1cc(-c2nnco2)nc(N[C@H]2CC[C@@H](Oc3cc(N4CCOCC4)cc4nccnc34)CC2)n1 [Compound 461] | < 100 nM
c1cc(-c2cnc(N[C@H]3CC[C@@H](Oc4cc(N5CCOCC5)cc5nccnc45)CC3)nc2)[nH]n1 [Compound 462] | < 100 nM
Cc1cncc(N[C@H]2CC[C@@H](Oc3cc(N4CCOCC4)cc4nccnc34)CC2)c1 [Compound 465] | < 100 nM
NC1(c2ccc(N[C@H]3CC[C@@H](Oc4cc(N5CCOCC5)cc5nccnc45)CC3)cn2)CC1 [Compound 466] | < 100 nM
OC1(c2ccc(N[C@H]3CC[C@@H](Oc4cc(N5CCOCC5)cc5nccnc45)CC3)cn2)COC1 [Compound 468] | < 100 nM
CCOC1CCN(c2cc(N[C@H]3CC[C@@H](Oc4cc(N5CCOCC5)cc5nccnc45)CC3)ncn2)CC1 [Compound 472] | < 100 nM
[2H]C([2H])([2H])c1nccc(N[C@H]2CC[C@@H](Oc3cc(N4CCOCC4)cc4nccnc34)CC2)n1 [Compound 478] | < 100 nM
CN(C)Cc1ccnc(N[C@H]2CC[C@@H](Oc3cc(N4CCOCC4)cc4nccnc34)CC2)n1 [Compound 483] | < 100 nM
CN1CCN(Cc2nccc(N[C@H]3CC[C@@H](Oc4cc(N5CCOCC5)cc5nccnc45)CC3)n2)CC1 [Compound 484] | < 100 nM
CN(C)c1ccnc(N[C@H]2CC[C@@H](Oc3cc(N4CCOCC4)cc4nccnc34)CC2)n1 [Compound 489] | < 100 nM
OC1CCN(c2cc(N[C@H]3CC[C@@H](Oc4cc(N5CCOCC5)cc5nccnc45)CC3)ncn2)CC1 [Compound 492] | < 100 nM
c1cc(N[C@H]2CC[C@@H](Oc3cc(N4CCOCC4)cc4nccnc34)CC2)nc(OCCN2CCCCC2)n1 [Compound 493] | < 100 nM
c1cnc2c(O[C@H]3CC[C@@H](Nc4ncc(CN5CCCCC5)cn4)CC3)cc(N3CCOCC3)cc2n1 [Compound 495] | < 100 nM
c1cc(N[C@H]2CC[C@@H](Oc3cc(N4CCOCC4)cc4nccnc34)CC2)nc(CN2CCCCC2)n1 [Compound 496] | < 100 nM
CN1CCN(Cc2cnc(N[C@H]3CC[C@@H](Oc4cc(N5CCOCC5)cc5nccnc45)CC3)nc2)CC1 [Compound 497] | < 100 nM

SMILES | Ki
c1cnc2c(O[C@H]3CC[C@@H](Nc4ccn5nccc5n4)CC3)cc(N3CCOCC3)cc2n1 [Compound 498] | < 100 nM
OCCN1CCN(c2cc(N[C@H]3CC[C@@H](Oc4cc(N5CCOCC5)cc5nccnc45)CC3)ncn2)CC1 [Compound 499] | < 100 nM
Cc1cc(N[C@H]2CC[C@@H](Oc3cc(N4CCOCC4)cc4nccnc34)CC2)n2cnnc2n1 [Compound 500] | < 100 nM
Clc1nc(N[C@H]2CC[C@@H](Oc3cc(N4CCOCC4)cc4nccnc34)CC2)nc2[nH]ccc12 [Compound 501] | < 100 nM
c1cc(N[C@H]2CC[C@@H](Oc3cc(N4CCOCC4)cc4nccnc34)CC2)nc(CN2CCOCC2)n1 [Compound 503] | < 100 nM
c1cc(CN2CCCCC2)nc(N[C@H]2CC[C@@H](Oc3cc(N4CCOCC4)cc4nccnc34)CC2)n1 [Compound 504] | < 100 nM
c1cc(CN2CCOCC2)nc(N[C@H]2CC[C@@H](Oc3cc(N4CCOCC4)cc4nccnc34)CC2)n1 [Compound 505] | < 100 nM
c1cnc2c(O[C@H]3CC[C@@H](Nc4ncc(OCCCN5CCCCC5)cn4)CC3)cc(N3CCOCC3)cc2n1 [Compound 507] | < 100 nM
CN1CCN(CCCOc2cnc(N[C@H]3CC[C@@H](Oc4cc(N5CCOCC5)cc5nccnc45)CC3)nc2)CC1 [Compound 508] | < 100 nM
c1cnc2c(O[C@H]3CC[C@@H](Nc4ncc(OCCN5CCCC5)cn4)CC3)cc(N3CCOCC3)cc2n1 [Compound 509] | < 100 nM
c1cnc2c(O[C@H]3CC[C@@H](Nc4cc5ncnn5cn4)CC3)cc(N3CCOCC3)cc2n1 [Compound 510] | < 100 nM
Clc1nc(N[C@H]2CC[C@@H](Oc3cc(N4CCOCC4)cc4nccnc34)CC2)nc2cc[nH]c12 [Compound 514] | < 100 nM
N#CCCN1CCC(c2cnc(N[C@H]3CC[C@@H](Oc4cc(N5CCOCC5)cc5nccnc45)CC3)nc2)CC1 [Compound 519] | < 100 nM
CCN1CCC(c2cnc(N[C@H]3CC[C@@H](Oc4cc(N5CCOCC5)cc5nccnc45)CC3)nc2)CC1 [Compound 523] | < 100 nM
c1cnc2c(O[C@H]3CC[C@@H](Nc4ncc(OCCCN5CCOCC5)cn4)CC3)cc(N3CCOCC3)cc2n1 [Compound 526] | < 100 nM
c1cnc2c(O[C@H]3CC[C@@H](Nc4ncc(CN5CCCC5)cn4)CC3)cc(N3CCOCC3)cc2n1 [Compound 528] | < 100 nM
CN(C)Cc1cnc(N[C@H]2CC[C@@H](Oc3cc(N4CCOCC4)cc4nccnc34)CC2)nc1 [Compound 529] | < 100 nM
